Measured values reported in patent US20240050441A1, “COMBINATION THERAPIES FOR THE TREATMENT OF CANCER” (Erasca, Inc., priority 2020, published 2024).
Entries after “also recorded” stand apart in the source; their conditions may differ.

Experiments:
Type in all cases: cell-based
[1] = system: ERK1/2 phosphorylation; experiment: Western blotting of phosphorylated ERK1/2 in CAL 27 cells; settings: HPV-negative CAL 27 cells; 4 hours of treatment; immunoblot, bands normalized by total ERK
Experimental: The cell lines used in the study were obtained from ATCC (CAL 27 #CRL-2095, SCC-15 #CRL-1623, SCC-25 #CRL-1628, SCC-4 #CRL-1624 and SCC-9 #CRL-1629). The cell line, CAL 27 was cultured in DMEM (Gib co #). SCC-4, SCC-15, SCC-25, SCC-9 cell lines was cultured in a 1:1 mixture of DMEM and Ham's F12 medium containing 1.2 g/L sodium bicarbonate, 2.5 mM L-glutamine, 15 mM HEPES and 0.5 mM sodium pyruvate supplemented with 400 ng/ml hydrocortisone, 90%; fetal bovine serum, 10% (Hyclone #SH-30071.03) and Penicillin/Streptomycin (Thermo Fisher #15070-063). The cells were maintained at 37° C./5% CO2. Cells were washed in ice cold PBS (Thermo Fisher Scientific #10010-023) and lysed in RIPA Lysis and Extraction Buffer (Thermo Fisher Scientific #89900) supplemented with Halt Phosphatase and Protease Inhibitor (Thermo Fisher Scientific #78445). […]
Western blotting: Cells were lysed on ice for 10 minutes with Thermo Fisher RIPA lysis buffer with protease and phosphatase inhibitors. […] The supernatant was transferred to pre-chilled microcentrifuge tube and protein concentration of the lysate was measured using BCA method. […]
After 4 hours of treatment, cells were lysed and immunoblotted for phosphorylated ERK1/2. […] The phosphorylated ERK1/2 bands were quantified by using Bio-Rad Image Lab software and normalized by total ERK.

[2] = system: SCC-9 cells; experiment: Cellular proliferation assay (CellTiter-Glo, day 5); settings: Homo sapiens, read-out: The compound of Formula I IC50, compound of Formula I alone
Experimental: (§1) The cell lines used in the study were obtained from ATCC (CAL 27 #CRL-2095, SCC-15 #CRL-1623, SCC-25 #CRL-1628, SCC-4 #CRL-1624 and SCC-9 #CRL-1629). The cell line, CAL 27 was cultured in DMEM (Gib co #). SCC-4, SCC-15, SCC-25, SCC-9 cell lines was cultured in a 1:1 mixture of DMEM and Ham's F12 medium containing 1.2 g/L sodium bicarbonate, 2.5 mM L-glutamine, 15 mM HEPES and 0.5 mM sodium pyruvate supplemented with 400 ng/ml hydrocortisone, 90%; fetal bovine serum, 10% (Hyclone #SH-30071.03) and Penicillin/Streptomycin (Thermo Fisher #15070-063). The cells were maintained at 37° C./5% CO2. Cells were washed in ice cold PBS (Thermo Fisher Scientific #10010-023) and lysed in RIPA Lysis and Extraction Buffer (Thermo Fisher Scientific #89900) supplemented with Halt Phosphatase and Protease Inhibitor (Thermo Fisher Scientific #78445). The membrane was blocked for non-specific proteins by Bovine Serum Albumin BSA (Cell Signaling Tech #9998). Antibodies for immunoblotting were as follows: phospho-p44/42 ERK1/2 (Cell Signaling Tech #4370), ERK2 antibody (Santa Cruz #sc-1647), anti-mouse IgG HRP-linked antibody (Cell Signaling Tech #7076), and anti-rabbit IgG HRP-linked antibody (Cell Signaling Tech #7074).
(§2) […] HPV-negative head and neck squamous cancer cell lines, CAL 27, SCC-4, SCC-9, SCC-15 and SCC-25 were split onto 96 well plates.

[3] = system: SCC-15 cells; experiment: as above; settings: Homo sapiens, read-out: The compound of Formula I IC50, compound of Formula I alone
Experimental: as §1, §2

[4] = system: SCC-25 cells; experiment: as above; settings: read-out: The compound of Formula I IC50, compound of Formula I alone
Experimental: as §1, §2

[5] = system: CAL 27 cells; experiment: as above; settings: Homo sapiens, read-out: The compound of Formula I IC50, compound of Formula I alone
Experimental: as §1, §2

COCOC[C@H]1C[C@H]2COc3c(Sc4cnc(N5CCC6(CC5)CO[C@@H](C)[C@H]6N)c(CO)n4)ccnc3N2C1 [The compound of Formula I]
inhibition of ERK1/2 phosphorylation relative to DMSO treated control cells [1]: approximately 50%; also recorded: about 50%
IC50 [2]: 0.161 µM
IC50 [3]: 1.41 µM
IC50 [4]: 8.05 µM
IC50 [5]: 0.112 µM
